Measured values as given in patent US12421249B2, “Inhibitors of APOL1 and methods of using same” (Vertex Pharmaceuticals Incorporated, priority 2020, dated 2025).

Target: T1, APOL1 (Homo sapiens, UniProt O14791)
T1 sequence (O14791 1-398 S342G/I384M): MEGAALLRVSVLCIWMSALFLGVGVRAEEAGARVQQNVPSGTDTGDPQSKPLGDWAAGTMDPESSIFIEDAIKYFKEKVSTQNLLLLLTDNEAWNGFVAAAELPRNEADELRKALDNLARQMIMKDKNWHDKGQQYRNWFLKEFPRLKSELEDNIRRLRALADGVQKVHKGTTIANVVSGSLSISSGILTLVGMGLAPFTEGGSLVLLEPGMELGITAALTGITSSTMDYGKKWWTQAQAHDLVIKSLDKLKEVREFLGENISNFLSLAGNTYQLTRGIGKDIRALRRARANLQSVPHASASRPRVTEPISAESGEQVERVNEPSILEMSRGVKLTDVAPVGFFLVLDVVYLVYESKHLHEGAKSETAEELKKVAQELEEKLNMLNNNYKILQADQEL
Assay: Multi-Tox Assay (MultiTox-Fluor Multiplex Cytotoxicity Assay in tet-inducible APOL1 T-REx-HEK293 cells; Table 46 does not say which APOL1 variant G0/G1/G2)
Format: cell-based
Conditions: APOL1 variant not given; for IC50: IP50 = IC50 for cell proliferation

C[C@H]1C[C@@]2(C[C@@H](c3cn(Cc4ccc(OC5CCOCC5)cc4)nn3)N1)OC[C@@H](O)c1cc(Cl)sc12 [Compound 266]
Multi-Tox Assay Max Activity (%): 100.0% | IC50: < 50 nM

C[C@H]1C[C@@]2(C[C@@H](c3cn(CC4CCOCC4)nn3)N1)OC[C@@H](O)c1cc(Cl)sc12 [Compound 267]
Multi-Tox Assay Max Activity (%): 99.0% | IC50: 50 to 500 nM

C[C@H]1C[C@@]2(C[C@@H](c3cn(Cc4cccc5c4OCCO5)nn3)N1)OC[C@@H](O)c1cc(Cl)sc12 [Compound 268]
Multi-Tox Assay Max Activity (%): 99.0% | IC50: 50 to 500 nM

C[C@H]1C[C@@]2(C[C@@H](c3cn(CC4CCOC4)nn3)N1)OC[C@@H](O)c1cc(Cl)sc12 (stereo partly shown) [Compound 269]
Multi-Tox Assay Max Activity (%): 99.0% | IC50: 50 to 500 nM

COCC1(Cn2cc([C@@H]3C[C@]4(C[C@H](C)N3)OC[C@@H](O)c3cc(Cl)sc34)nn2)CC1 [Compound 270]
Multi-Tox Assay Max Activity (%): 93.0% | IC50: 50 to 500 nM

C[C@H]1C[C@@]2(C[C@@H](c3cn(Cc4cccc(CO)c4)nn3)N1)OC[C@@H](O)c1cc(Cl)sc12 [Compound 271]
Multi-Tox Assay Max Activity (%): 97.0% | IC50: < 50 nM

Cc1nnc(Cn2cc([C@@H]3C[C@]4(C[C@H](C)N3)OC[C@@H](O)c3cc(Cl)sc34)nn2)[nH]1 [Compound 272]
Multi-Tox Assay Max Activity (%): 95.0% | IC50: 50 to 500 nM

C[C@H]1C[C@@]2(C[C@@H](c3cn(CCC4CCCOC4)nn3)N1)OC[C@@H](O)c1cc(Cl)sc12 (stereo partly shown) [Compound 273]
IC50: < 50 nM

Cc1ccnn1CCn1cc([C@@H]2C[C@]3(C[C@H](C)N2)OC[C@@H](O)c2cc(Cl)sc23)nn1 [Compound 274]
Multi-Tox Assay Max Activity (%): 97.0% | IC50: 50 to 500 nM

C[C@H]1C[C@@]2(C[C@@H](c3cn(Cc4ccc(O)nc4)nn3)N1)OC[C@@H](O)c1cc(Cl)sc12 [Compound 275]
Multi-Tox Assay Max Activity (%): 94.0% | IC50: 50 to 500 nM

C[C@H]1C[C@@]2(C[C@@H](c3cn(Cc4cnccn4)nn3)N1)OC[C@@H](O)c1cc(Cl)sc12 [Compound 276]
Multi-Tox Assay Max Activity (%): 100.0% | IC50: 50 to 500 nM

Cc1ncc(Cn2cc([C@@H]3C[C@]4(C[C@H](C)N3)OC[C@@H](O)c3cc(Cl)sc34)nn2)cn1 [Compound 277]
Multi-Tox Assay Max Activity (%): 100.0% | IC50: < 50 nM

COc1cccc(Cn2cc([C@@H]3C[C@]4(C[C@H](C)N3)OC[C@@H](O)c3cc(Cl)sc34)nn2)c1 [Compound 278]
Multi-Tox Assay Max Activity (%): 100.0% | IC50: < 50 nM

C[C@H]1C[C@@]2(C[C@@H](c3cn(Cc4cccc(O)c4)nn3)N1)OC[C@@H](O)c1cc(Cl)sc12 [Compound 279]
Multi-Tox Assay Max Activity (%): 97.0% | IC50: 50 to 500 nM

C[C@H]1C[C@@]2(C[C@@H](c3cn(Cc4cccnn4)nn3)N1)OC[C@@H](O)c1cc(Cl)sc12 [Compound 280]
Multi-Tox Assay Max Activity (%): 99.0% | IC50: 50 to 500 nM

C[C@H]1C[C@@]2(C[C@@H](c3cn(CC(O)c4ccccc4)nn3)N1)OC[C@@H](O)c1cc(Cl)sc12 (stereo partly shown) [Compound 281]
Multi-Tox Assay Max Activity (%): 99.0% | IC50: 50 to 500 nM

COCCn1cc([C@@H]2C[C@]3(C[C@H](C)N2)OC[C@@H](O)c2cc(Cl)sc23)nn1 [Compound 282]
Multi-Tox Assay Max Activity (%): 99.0% | IC50: < 50 nM

C[C@H]1C[C@@]2(C[C@@H](c3cn(CC(F)F)nn3)N1)OC[C@@H](O)c1cc(Cl)sc12 [Compound 283]
IC50: 50 to 500 nM

CCC(O)Cn1cc([C@@H]2C[C@]3(C[C@H](C)N2)OC[C@@H](O)c2cc(Cl)sc23)nn1 (stereo partly shown) [Compound 284]
IC50: 50 to 500 nM

Cc1c(Cn2cc([C@@H]3C[C@]4(C[C@H](C)N3)OC[C@@H](O)c3cc(Cl)sc34)nn2)cnn1C [Compound 285]
Multi-Tox Assay Max Activity (%): 98.0% | IC50: 50 to 500 nM

C[C@H]1C[C@@]2(C[C@@H](c3cn(CCC#N)nn3)N1)OC[C@@H](O)c1cc(Cl)sc12 [Compound 286]
Multi-Tox Assay Max Activity (%): 98.0% | IC50: < 50 nM

CC(C)N1CC(Cn2cc([C@@H]3C[C@]4(C[C@H](C)N3)OC[C@@H](O)c3cc(Cl)sc34)nn2)CC1=O (stereo partly shown) [Compound 287]
Multi-Tox Assay Max Activity (%): 96.0% | IC50: 50 to 500 nM

C[C@H]1C[C@@]2(C[C@@H](c3cn(CCC(N)=O)nn3)N1)OC[C@@H](O)c1cc(Cl)sc12 [Compound 288]
Multi-Tox Assay Max Activity (%): 97.0% | IC50: 50 to 500 nM

C[C@H]1C[C@@]2(C[C@@H](c3cn(CC4(F)CCOCC4)nn3)N1)OC[C@@H](O)c1cc(Cl)sc12 [Compound 289]
IC50: > 500 nM

CCn1cc(Cn2cc([C@@H]3C[C@]4(C[C@H](C)N3)OC[C@@H](O)c3cc(Cl)sc34)nn2)cn1 [Compound 290]
Multi-Tox Assay Max Activity (%): 99.0% | IC50: 50 to 500 nM

C[C@H]1C[C@@]2(C[C@@H](c3cn(Cc4cocn4)nn3)N1)OC[C@@H](O)c1cc(Cl)sc12 [Compound 291]
Multi-Tox Assay Max Activity (%): 100.0% | IC50: 50 to 500 nM

C[C@H]1C[C@@]2(C[C@@H](c3cn(Cc4ccccn4)nn3)N1)OC[C@@H](O)c1cc(Cl)sc12 [Compound 292]
Multi-Tox Assay Max Activity (%): 99.0% | IC50: 50 to 500 nM

COc1cc(F)cc(Cn2cc([C@@H]3C[C@]4(C[C@H](C)N3)OC[C@@H](O)c3cc(Cl)sc34)nn2)c1 [Compound 293]
Multi-Tox Assay Max Activity (%): 100.0% | IC50: < 50 nM

Cc1ccc(Cn2cc([C@@H]3C[C@]4(C[C@H](C)N3)OC[C@@H](O)c3cc(Cl)sc34)nn2)nc1 [Compound 294]
Multi-Tox Assay Max Activity (%): 100.0% | IC50: 50 to 500 nM

COc1ccc(Cn2cc([C@@H]3C[C@]4(C[C@H](C)N3)OC[C@@H](O)c3cc(Cl)sc34)nn2)cc1 [Compound 295]
Multi-Tox Assay Max Activity (%): 99.0% | IC50: < 50 nM

Cc1cc(Cn2cc([C@@H]3C[C@]4(C[C@H](C)N3)OC[C@@H](O)c3cc(Cl)sc34)nn2)ccn1 [Compound 296]
Multi-Tox Assay Max Activity (%): 99.0% | IC50: 50 to 500 nM

Cc1nc(Cn2cc([C@@H]3C[C@]4(C[C@H](C)N3)OC[C@@H](O)c3cc(Cl)sc34)nn2)oc1C [Compound 297]
Multi-Tox Assay Max Activity (%): 99.0% | IC50: < 50 nM

C[C@H]1C[C@@]2(C[C@@H](c3cn(Cc4ncc(F)cc4F)nn3)N1)OC[C@@H](O)c1cc(Cl)sc12 [Compound 298]
Multi-Tox Assay Max Activity (%): 95.0% | IC50: 50 to 500 nM

C[C@@H](CO)CCn1cc([C@@H]2C[C@]3(C[C@H](C)N2)OC[C@@H](O)c2cc(Cl)sc23)nn1 [Compound 299]
IC90: 50 to 500 nM | Multi-Tox Assay Max Activity (%): 99.0% | IC50: < 50 nM

C[C@H]1C[C@@]2(C[C@@H](c3cn(C[C@H](O)CO)nn3)N1)OC[C@@H](O)c1cc(Cl)sc12 [Compound 300]
IC90: 50 to 500 nM | Multi-Tox Assay Max Activity (%): 100.0% | IC50: 50 to 500 nM

C[C@H]1C[C@@]2(C[C@@H](c3cn(CCOc4ccccc4F)nn3)N1)OC[C@@H](O)c1cc(Cl)sc12 [Compound 301]
Multi-Tox Assay Max Activity (%): 99.0% | IC50: < 50 nM

C[C@H]1C[C@@]2(C[C@@H](c3cn(Cc4ccc(O)cc4)nn3)N1)OCC(F)(F)c1cc(Cl)sc12 [Compound 302]
Multi-Tox Assay Max Activity (%): 94.0% | IC50: 50 to 500 nM

Cc1cccc(OCC(O)Cn2cc([C@@H]3C[C@]4(C[C@H](C)N3)OCC(F)(F)c3cc(Cl)sc34)nn2)c1 (stereo partly shown) [Compound 303]
Multi-Tox Assay Max Activity (%): 99.0% | IC50: 50 to 500 nM

Cc1ccccc1C(O)Cn1cc([C@@H]2C[C@]3(C[C@H](C)N2)OCC(F)(F)c2cc(Cl)sc23)nn1 (stereo partly shown) [Compound 304]
Multi-Tox Assay Max Activity (%): 99.0% | IC50: 50 to 500 nM
